Experimental data published in patent US9914750B2, “Synthetic peptides and peptide mimetics” (University of Louisville Research Foundation, priority 2007, dated 2018).
“Also recorded” adds a separate entry of the source. No end group written: not given here.

Experiments:
[1] = test system: LPS-binding protein (LBP); assay: Inhibition of LPS binding to LPS-binding protein (ELISA); settings: for Inhibition (Mean ± SEM) of LPS binding to LBP: relative to polymyxin B (100% inhibition), LPS preincubated with peptide
Description: Analysis of the PSP sequence indicated three possible regions of biological activity. Initially, three peptides corresponding to the PSP sequence in these regions were designed and used in these studies. The initial step in the inflammatory cascade is the binding of LPS to LPS-binding protein. This binding was inhibited by preincubation of LPS with each of the three peptides. […] The binding of LPS to LPB was analyzed to ELISA. 0% inhibition (100% binding) was determined in the absence of inhibitors while 100% inhibition was determined in the presence of the inhibitor polymyxin B. The inhibition of each peptide is determined relative to the effect of polymyxin B.

P. aeruginosa PAO1 [2] = assay: Biofilm formation / bacterial adhesion assay, PVC microtiter plates, crystal violet; assay type: cell-based, Pseudomonas aeruginosa; settings: 50 μg/ml, 6 h, aerobic
Description: FIGS. 7A and 7B: PSP-peptides inhibit biofilm formation. P. aeruginosa PAO1 (overnight cultures, diluted 1:100 were incubated with 50 μg/ml of each peptide (LL37, GK7, GL13, KL11) or lysozyme for 6 h under aerobic (FIG. 7A) or reduced oxygen (anaerobic) (FIG. 7B) conditions. The OD 570 (growth) was determined and the attached cells were then quantitated by staining with crystal violet (biofilm). Growth and biofilm values were normalized against the mean of samples without peptides (HOAc) and expressed as mean±SEM. The data in panel A are from three independent experiments, N=22−24. The data in panel B are from two independent experiments, N=16. Lysozyme (Lyz) data are from a single experiment, N=8. *) different from Growth, P<0.002
(§1) Overnight cultures of P. aeruginosa PAO1 were diluted 1:100 in MHB and 100 μl/well were incubated with 5 μl of LL-37, GK-7, GL-13, KL-11 or lysozyme (1 mg/ml) in PVC microtiter plates. The plates were incubated for 6 h at 32° C. under aerobic or reduced oxygen conditions. Bacterial growth was quantitated spectrophotometrically at 570 nm. Twenty-five μl of 1% crystal violet in dH2O was added to each well and incubated 20 min at room temperature. The wells were emptied and washed three times in dH2O and then incubated for 30 min with 200 μl of 95% ethanol. The OD at 570 nm was determined as a measure of biofilm formation. Growth and biofilm values were normalized against the mean of samples incubated with 0.01% acetic acid without peptides.
as §1, with “μl of the bacterial suspension was mixed” for “μl/well were incubated”, “50 μg/ml” for “5 μl”, “lysozyme” for “lysozyme (1 mg/ml)”

P. aeruginosa PAO1 [3] = assay: MIC determination, broth dilution assay (growth OD 570 nm, pelleting in wells); assay type: cell-based, Pseudomonas aeruginosa
Description: (§2) FIGS. 5A and 5B: PSP peptides lack bacteriostatic activity. P. aeruginosa PAO1 or A. actinomycetemcomitans JP2 (10^5 cells/ml) were incubated overnight with two-fold serial dilutions of the indicated peptides. The OD was determined at 570 nm. The data for P. aeruginosa (FIG. 5A) are representative of six independent experiments. The data for A. actinomycetemcomitans (FIG. 5B) are representative of three independent experiments. Filled squares, lysozyme; open diamonds, no peptide; open triangles, KL-11; filled triangles, GK-7; open squares, GL-13; filled diamonds, LL-37. […] Lysozyme inhibits growth about 50%. None of the PSP peptides inhibit growth.
FIG. 6A-6C: GL13 causes bacterial cell spreading. Microtiter plates used to determine bacteriostatic activity (FIG. 5) were photographed after overnight incubation with serial dilutions of the indicated peptides. The diameter of the P. aeruginosa pellets in the presence of GL13 was determined and expressed relative to the peptide concentration in each well. A. Graph of the results. B and C are representative depictions of P. aeruginosa and A. actinomycetemcomitans, respectively, spreading in the presence of PSP peptides.
The minimal inhibitory concentration (MIC) of PSP peptides was tested using the broth dilution assay. […] Bacterial growth was quantitated by the optical density (OD) at 570 nm. […]

[4] = test system: A. actinomycetemcomitans JP2; assay: as above; assay type: cell-based, Aggregatibacter (Actinobacillus) actinomycetemcomitans
Description: as §2
The minimal inhibitory concentration (MIC) of PSP peptides was tested using the broth dilution assay. Briefly, overnight cultures of bacteria were diluted in Mueller-Hinton broth (MHB) (Difco) to 10^5 CFU/ml. Diluted bacteria (100 μl) and two-fold serial dilutions of peptides in 10 mM sodium phosphate, pH 7.4 (20 μl) were mixed in polypropylene microtiter plates and incubated for 24 h at 35° C. for P. aeruginosa or 48 h at 37° C. under reduced oxygen conditions for A. actinomycetemcomitans. Control samples were incubated with bacteria and two-fold serial dilutions of 20 μl 0.01% acetic acid in 10 mM sodium phosphate. Bacterial growth was quantitated by the optical density (OD) at 570 nm. […]

P. aeruginosa = assay: Antibacterial activity in vivo, Romaine lettuce infection model; parameters: species or system Pseudomonas aeruginosa; settings: 200 μg/ml peptide injected with bacteria, scored after 2-3 days
Description: FIG. 4: Antibacterial activity in vivo. Romaine lettuce leaves were injected with P. aeruginosa (10^8 cells/nil) in the presence or absence of 200 μg/ml of antibacterial peptides. After 2-3 days incubation the injection sites were scored for infection on a scale of 0-100% relative to the no-bacteria (0% infection) and bacteria-only controls (PAO1) (100%). Data are from six independent experiments and are shown as mean±SEM, N=4−12. *) P<0.04, **) P<0.003.
Romaine lettuce heads were purchased from local grocery stores. Outer leaves were removed and undamaged leaves were selected. The leaves were rinsed in 0.1% bleach and incubated in plastic containers on filter paper moistened with 10 mM MgSO4. Overnight cultures of P. aeruginosa were diluted to 10^8 CFU/ml in 10 mM MgSO4 and supplemented with 200 μg/ml of each peptide. Ten μl (10^6 CFU, 2 μg peptide) were injected into the midrib of each leaf using a micro pipetter. Blank controls were incubated with buffer only, and bacterial controls were incubated without peptide. The plastic trays were covered and incubated at 35° C. Leaves were inspected daily for browning around the injection site or along the midrib. Generally rotting or moldy leaves were discarded. Infection was scored on a scale from 0% to 100% relative to blank controls and bacterial controls, respectively.

sheep red blood cells = assay: Hemagglutination assay; assay type: cell-based; settings: PBS, absence of serum, 2 h
Description: FIG. 22: Hemagglutination of sheep red blood cells. RBCs were washed in PBS and incubated for 2 h in microtiter plates in PBS±5% fetal calf serum. Peptide concentrations were 83 μg/ml. The microtiter plate was imaged. Agglutinated red blood cells form a wide mat of cells, while non-agglutinated cells form a button shaped pellet.
Briefly, unmodified sheep erythrocytes (Cappel, M P Biomedicals, Irvine, Calif.) were washed in PBS and suspended at 1% in PBS. Diluted erythrocytes and 20 μg/ml of each peptide in PBS were mixed in polypropylene microtiter plates (120 μl per well) and incubated for 2 h at 35° C. The plates were imaged on a Kodak Image station.

[5] = test system: Aggregatibacter (Actinobacillus) actinomycetemcomitans JP2; assay type: cell-based; settings: 10 or 100 μg/ml
Description: The PSP peptides GL13, GK7 and KL11, lysozyme, LL37 or no peptide (BLK) were incubated with P. aeruginosa (FIG. 3A) or A. actinomycetemcomitans (FIG. 3B). P. aeruginosa PAO1 (10^5 cells/ml) were incubated for 2 h at 35° C. with 10 μg/ml (open bars) or 100 μg/ml (shaded bars) of each peptide. A. actinomycetemcomitans JP2 (10^5 cells/nil) were incubated for 4 h at 37° C. under reduced oxygen conditions. Bacterial cultures were diluted and plated on LB agar (Pseudomonas) or BHI agar plates (A.a., low oxygen incubation) and surviving CFUs enumerated. The data are shown as mean±SEM, P. aeruginosa: N=8−22 at 100 μg/ml, N=2−10 at 10 μg/ml. A. actinomycetemcomitans: N=3. *) P<0.0001, **) P<0.004, ***) P<0.02
Overnight cultures of bacteria were pelleted and resuspended in 10 mM sodium phosphate, pH 7.4 (10^5 CFU/ml). Diluted bacteria (100 μl) were incubated with 10 or 100 μg/ml of each peptide in 10 mM sodium phosphate, pH 7.4. P aeruginosa PAO1 were incubated for 2 h at 35° C. while A. actinomycetemcomitans JP2 were incubated for 4 h at 37° C. under reduced oxygen conditions. […]
As a second antibacterial assay, bactericidal activity was determined by incubating the peptides (10 or 100 μg/ml) with P. aeruginosa, A. actinomycetemcomitans or S. gordonii in 10 mM phosphate buffer. […]

[6] = Affinity binding of PSP to LPS-Sepharose / immobilized LPS
Text: PLUNC binds LPS, as expected from its structural similarity to LPS-Binding Protein (LBP). To determine if PSP also binds LPS, the protein was expressed in GH4C1 cells and the secretion medium was used for affinity chromatography on LPS-Sepharose. After binding, the affinity matrix was washed and then eluted with PBS+0.2 g/1 EDTA. […] The results of this experiment establish that PSP is an LPS-binding protein and provides a method for purification of PSP.
Secretion medium from GH4C1 cells was loaded on LPS-Sepharose and the unbound fraction collected (this sample was divided on two lanes for PSP-WT). The column was washed and then eluted with PBS+EDTA. The eluted beads were boiled in SDS-sample buffer to release any remaining proteins.

## KAQEAEKLLNN [KN11]
[1]
  Inhibition (Mean ± SEM) of LPS binding to LBP: 36% ± 13

## lysozyme: Lysozyme (egg white) from Fisher Scientific, established antimicrobial protein [reference compound]
P. aeruginosa PAO1 [2]
  bacterial growth in biofilm/adhesion assay: affected neither growth nor biofilm formation; also recorded: affected neither growth nor adhesion
  biofilm formation / adhesion: affected neither growth nor biofilm formation; also recorded: affected neither growth nor adhesion
P. aeruginosa PAO1 [3]; broth dilution assay
  reduction of growth of P. aeruginosa: about 50%
P. aeruginosa PAO1 [3]; two-fold serial dilutions starting at 84 μg/ml
  MIC: did not exhibit a defined MIC
[4]
  growth inhibition of A. actinomycetemcomitans: did not inhibit growth of A. actinomycetemcomitans
P. aeruginosa
  infection of lettuce leaves: significantly reduced the infection

## GQIINLKASLNLL-NH2 [GL13-D/N-NH2, GQIINLKASLNLL-(CONH2)]
Sheep red blood cells
  hemagglutination (words): caused hemagglutination

## CC[C@H](C)[C@H](NC(=O)[C@H](CCCCN)NC(=O)[C@H](CCC(=O)O)NC(=O)[C@H](CCCCN)NC(=O)[C@H](CO)NC(=O)[C@H](CCCCN)NC(=O)[C@H](CCCNC(=N)N)NC(=O)[C@H](Cc1ccccc1)NC(=O)[C@H](Cc1ccccc1)NC(=O)[C@H](CC(=O)O)NC(=O)CNC(=O)[C@H](CC(C)C)NC(=O)[C@@H](N)CC(C)C)C(=O)NCC(=O)N[C@@H](CCCCN)C(=O)N[C@@H](CCC(=O)O)C(=O)N[C@@H](Cc1ccccc1)C(=O)N[C@@H](CCCCN)C(=O)N[C@@H](CCCNC(=N)N)C(=O)N[C@H](C(=O)N[C@H](C(=O)N[C@@H](CCC(N)=O)C(=O)N[C@@H](CCCNC(=N)N)C(=O)N[C@H](C(=O)N[C@@H](CCCCN)C(=O)N[C@@H](CC(=O)O)C(=O)N[C@@H](Cc1ccccc1)C(=O)N[C@@H](CC(C)C)C(=O)N[C@@H](CCCNC(=N)N)C(=O)N[C@@H](CC(N)=O)C(=O)N[C@@H](CC(C)C)C(=O)N[C@H](C(=O)N1CCC[C@H]1C(=O)N[C@@H](CCCNC(=N)N)C(=O)N[C@H](C(=O)N[C@@H](CCC(=O)O)C(=O)N[C@@H](CO)C(=O)O)[C@@H](C)O)C(C)C)[C@@H](C)CC)C(C)C)[C@@H](C)CC [LL37, reference compound]
[5]
  killing of A. actinomycetemcomitans: 100%
Sheep red blood cells
  hemagglutination (words): did not cause hemagglutination

## KLLNNVISK [KK9]
[1]
  Inhibition (Mean ± SEM) of LPS binding to LBP: 34% ± 12

## Substance P: antibacterial cationic peptide substance P
[1]
  effect on LPS binding to LBP: had no effect on LPS binding to LBP
  Inhibition (Mean ± SEM) of LPS binding to LBP: −18% ± 19

## GQIINLKASLDLL [GL13-OH, GQIINLKASLDLL]
Sheep red blood cells
  hemagglutination (words): caused hemagglutination

B1: PSP: human Parotid Secretory Protein (SPLUNC2, C20ORF70), SEQ ID NO:6 (protein, listed as Homo sapiens)
chain: MLQLWKLVLLCGVLTGTSESLLDNLGNDLSNVVDKLEPVLHEGLETVDNTLKGILEKLKVDLGVLQKSSAWQLAKQKAQEAEKLLNNVISKLLPTNTDIFGLKISNSLILDVKAEPIDDGKGLNLSFPVTANVTVAGPIIGQIINLKASLDLLTAVTIETDPQTHQPVAVLGECASDPTSISLSLLDKHSQIINKFVNSVINTLKSTVSSLLQKEICPLIRIFIHSLDVNVIQQVVDNPQHKTQLQTLI
[6]
  binding of PSP to LPS: quantitatively retained by the LPS affinity matrix; also recorded: bound to immobilized P. aeruginosa LPS
